We go through 1 compound from patent US7291349B2, “Anti-dermatophytic preparation and use thereof” (priority 2003, dated 2007).

The test system of this assay is Candida albicans MTCC1637. The assay is described as follows: Broth assay (two fold dilution method) of garlic extract in combination with essential oils. It counts as cell-based. The conditions noted are these: Table 3. As for the experimental part:
Following tables presents the results of evaluation of antifungal activities of water or solvent extracts of garlic in combinations with the essential oils. […] The combinations of essential oils and garlic extracts were made according to their MICs ([…]). […] But only selected oils viz. Mentha spicata van. […] The activity increased to several folds when these combinations were added to constituent of essential oil like menthyl acetate. […] The broth assay was carried out following the NCCLS documents published by National Committee for Clinical and Laboratory Standards (USA) and disc diffusion assay according to Bauer et al (Bauer et al, […], American Journal of Clinical Pathology, 45:493-496).

Molecules are shown by their SMILES.

Turning to `CC(=O)OC1CC(C)CCC1C(C)C` (stereo not shown) [Menthyl acetate], the FIC value is recorded as 1.0 (garlic extract 1/1600), 0.75 (garlic extract 1/3200) and 0.625 (garlic extract 1/6400). In addition, the “Fold enhancement on the basis of Reduction in the MIC of oil in combination” value runs as follows: (garlic extract 1/1600) 2; (garlic extract 1/3200) 2; (garlic extract 1/6400) 2. For the same compound, the “Type of Interaction” value is “Indifference” (garlic extract 1/1600), “Additive” (garlic extract 1/3200) and “Additive” (garlic extract 1/6400). For the same compound, the “Reduction in the MIC of oil” value reads like this: (garlic extract 1/1600 in combination) 1/1600; (garlic extract 1/3200 in combination) 1/1600; (garlic extract 1/6400 in combination) 1/1600. Besides, for the setting “alone, dilution”, the “MIC of essential oil/extract” value is 1/800.
